The values below come from patent publication US20130029942A1, “COMPOUNDS AND THERAPEUTICAL USES THEREOF” (Myrexis, Inc., priority 2003, published 2013).

The structures appear in SMILES notation. Read-outs that look alike come from different tables or passages of the source.

For one test, the system named is T-47D cells. The experiment in a line: Caspase cascade activation / induction of apoptosis in T-47D cells (fluorogenic N-(Ac-DEVD)-N'-ethoxycarbonyl-R110 substrate). It counts as cell-based, human. The note with it: for EC50: Homo sapiens, T47D.
The test system of test [1] is P388 murine leukemia cell line. The experiment in a line: P388 cytotoxicity (ATP-Lite, 72 hours). Format: cell-based. The note with it: Mus musculus, P388, 72 hours. Here is the method: A P388 murine leukemia cell line was obtained from NCI, Frederick, Md. P388 cells were cultured in RPMI-1640 supplemented with 10% fetal bovine serum, 2 mM Glutamax, 1 mM sodium pyruvate, 0.1 mM non-essential amino acids and 10 mM HEPES. Cells were grown at 37° C. in a humidified 5% CO2 atmosphere. Exponentially growing P388 cells were plated at 5,000 cells/well in a 96-well flat-bottomed microtiter plate (Corning, Costar #3595). […] Cellular viability was determined 72 hours later by measuring intracellular ATP with ATP-Lite assay system. The effect of compounds on cell viability was calculated by comparing the ATP levels of cells exposed to test compound with those of cells exposed to DMSO. […] Data was analyzed by Prism software (GraphPad; San Diego, Calif.) by fitting it to a sigmoidal dose response curve.

Where [2] appears, read: 24 h, read-out: T-47D (24 hr) EC50 (nM).
[3] abbreviates: T-47D, 24 hr, read-out: T-47D (24 hr) EC50.

Turning to `[2H]c1c([2H])c(N(C)c2nc(C)nc3ccccc23)c([2H])c([2H])c1OC` [Example 108, (4-Methoxy-phenyl-2,3,5,6-d4)-(2-methyl-quinazolin-4-yl)-methyl-amine], the EC50 with T-47D cells (setting [2]) amounted to 1 nM.
On to `COc1ccc(N(C)c2nc(C)nc3ccc([N+](=O)[O-])cc23)cc1` [Example 109, (4-Methoxy-phenyl)-(2-methyl-6-nitro-quinazolin-4-yl)-methyl-amine], for which, in the test on T-47D cells (setting [3]), the EC50 stood at 274 nM.
As for `COc1ccc(N(C)c2nc(C)nc3ccc(N)cc23)cc1` [Example 110, (6-Amino-2-methyl-quinazolin-4-yl)-(4-methoxy-phenyl)-methyl-amine], the EC50 in the test with T-47D cells (setting [3]) was determined as 7 nM.
As for `COc1ccc(N(C)c2nc(C)nc3ccc(N=[N+]=[N-])cc23)cc1` [Example 111, (6-Azido-2-methyl-quinazolin-4-yl)-(4-methoxy-phenyl)-methyl-amine], the EC50 in the test on T-47D cells (setting [3]) was 32 nM.
On to `COc1ccc(N(C)c2nc(C)nc3cc([N+](=O)[O-])ccc23)cc1` [Example 112, (4-Methoxy-phenyl)-methyl-(2-methyl-7-nitro-quinazolin-4-yl)-amine], for which the 50% effective concentration (EC50) in the test with T-47D cells (setting [2]) is over 10000 nM.
Consider `COc1ccc(N(C)c2nc(C)nc3cc(N)ccc23)cc1` [Example 113, (7-Amino-2-methyl-quinazolin-4-yl)-(4-methoxy-phenyl)-methyl-amine], for which the EC50 with T-47D cells (setting [3]) stood at 735 nM.
On the same count and under the same terms, with `COc1ccc(N(C)c2nc(C)nc3cc(N=[N+]=[N-])ccc23)cc1` [Example 114, (7-Azido-2-methyl-quinazolin-4-yl)-(4-methoxy-phenyl)-methyl-amine] the figure was 130 nM.
The same measure, in the same setting: with `COc1c(Br)cc(N(C)c2nc(C)nc3ccc([N+](=O)[O-])cc23)cc1Br` [Example 115, (3,5-Dibromo-4-methoxy-phenyl)-(2-methyl-6-nitro-quinazolin-4-yl)-methyl-amine] the figure was over 10000 nM.
Still for that read-out and setting: with `Cc1nc(N(C)c2ccc(C(=O)O)cc2)c2ccccc2n1` [Example 116, 4-(N-Methyl-N-(2-methylquinazolin-4-yl)amino)benzoic Acid] the figure was over 10000 nM.
`CCOC(=O)c1nc(N(C)c2ccc(OC)cc2)c2ccccc2n1` [Example 117, Ethyl 4-(N-(4-Methoxy-phenyl)-N-methylamino)quinazoline-2-carboxylate]: the EC50 in the test on T-47D cells (setting [3]) amounted to 134 nM.
Turning to `COc1ccc(N(C)c2nc(C(=O)O)nc3ccccc23)cc1` [Example 118, 4-(N-(4-Methoxy-phenyl)-N-methylamino)quinazoline-2-carboxylic acid], the EC50 in the test with T-47D cells (setting [3]) is over 10000 nM.
On the same count and under the same terms, as for `Cc1nc(N(C)c2ccc(C(=O)ON3C(=O)CCC3=O)cc2)c2ccccc2n1` [Example 119, Succinimidyl 4-(N-Methyl-N-(2-methylquinazolin-4-yl)amino)benzoic acid ester], the figure is 4290 nM.
Still for that read-out and setting: with `COc1ccc(N(C)c2nc(SC)nc3ccccc23)cc1` [Example 120, (2-Methylthio-quinazolin-4-yl)-(4-methoxy-phenyl)-methyl-amine] the figure was 8 nM.
On the same count and under the same terms, as for `COc1ccc(N(C)c2nc(N=[N+]=[N-])nc3ccccc23)cc1` [Example 121, (2-Azido-quinazolin-4-yl)-(4-methoxy-phenyl)-methyl-amine], the figure is 30 nM; as for `COc1ccc(N(C)c2nc(N(C)C)nc3ccccc23)cc1` [Example 122, (2-Dimethylamino-quinazolin-4-yl)-(4-methoxy-phenyl)-methyl-amine], 16 nM.
`CNc1nc(N(C)c2ccc(OC)cc2)c2ccccc2n1` [Example 123, (2-Methylamino-quinazolin-4-yl)-(4-methoxy-phenyl)-methyl-amine]: the EC50 in the test with T-47D cells (setting [3]) is 8 nM.
Take `Cc1nc(N(C)c2ccc(F)cc2)c2ccccc2n1` [Example 124, (4-Fluoro-phenyl)-(2-methyl-quinazolin-4-yl)-methyl-amine]: in the test on T-47D cells (setting [3]), the EC50 was determined as 408 nM.
With `COc1ccc(N(C)c2nc(C)nc3ccccc23)nn1` [Example 125, (6-Methoxy-pyridazin-3-yl)-(2-methyl-quinazolin-4-yl)-methyl-amine], the EC50 with T-47D cells (setting [3]) worked out at 385 nM.
Same read-out and setting: as for `COc1cnc(N(C)c2nc(C)nc3ccccc23)cn1` [Example 126, (5-Methoxy-pyrazin-2-yl)-(2-methyl-quinazolin-4-yl)-methyl-amine], the figure is 55 nM; as for `Cc1nc(Nc2ccc(O)cc2)c2ccccc2n1` [Example 127, (4-hydroxy-phenyl)-(2-methyl-quinazolin-4-yl)-amine], over 10000 nM.
For the compound `COc1ccc(N(C)c2nc(N(C)C)nc3ccccc23)cn1` [Example 128, (2-Dimethylamino-quinazolin-4-yl)-(6-methoxy-pyridin-3-yl)-methyl-amine], the EC50 in the test on T-47D cells (setting [3]) came out at 58 nM.
As to `CNc1nc(N(C)c2ccc(OC)nc2)c2ccccc2n1` [Example 129, (2-Methylamino-quinazolin-4-yl)-(6-methoxy-pyridin-3-yl)-methyl-amine], the EC50 in the test on T-47D cells (setting [3]) is 27 nM.
For the compound `C[C@H]1CC[C@@H](Nc2nc(Cl)nc3ccccc23)CC1` [Example 130, (2-Chloro-quinazolin-4-yl)-(cis-4-methylcyclohexyl)-amine], the EC50 with T-47D cells (setting [3]) was over 10000 nM.
As for `C[C@H]1CC[C@H](Nc2nc(Cl)nc3ccccc23)CC1` [Example 131, (2-chloro-quinazolin-4-yl)-(trans-4-methylcyclohexyl)-amine], the EC50 in the test with T-47D cells (setting [3]) is over 10000 nM. In addition, the “T-47D (24 hr) Ratio (caspase activity, net RFU compound / control)” value in the test with T-47D cells (T-47D, 24 hr) stood at 1.2.
Turning to `CN(c1nc(Cl)nc2ccccc12)[C@H]1CC[C@@H](C)CC1` [Example 132, (2-Chloro-quinazolin-4-yl)-(cis-4-methylcyclohexyl)-methyl-amine], the EC50 in the test on T-47D cells (setting [3]) is over 10000 nM.
On to `CN(c1nc(Cl)nc2ccccc12)[C@H]1CC[C@H](C)CC1` [Example 133, (2-Chloro-quinazolin-4-yl)-(trans-4-methylcyclohexyl)-methyl-amine], for which the EC50 in the test on T-47D cells (setting [3]) is over 10000 nM.
The same measure, in the same setting: as for `Cc1nc(N(C)c2cnccn2)c2ccccc2n1` [Example 134, (2-Methyl-quinazolin-4-yl)-(pyrazin-2-yl)-methyl-amine], the figure is over 10000 nM; as for `Cc1nc(Nc2ccncc2)c2ccccc2n1` [Example 135, (2-Methyl-quinazolin-4-yl)-(pyridin-4-yl)-amine], over 10000 nM; as for `Cc1nc(N(C)c2ccncc2)c2ccccc2n1` [Example 136, (2-Methyl-quinazolin-4-yl)-(pyridin-4-yl)-methyl-amine], over 10000 nM.
The same measure, in the same setting: with `COc1ccc(Nc2nc(C)nc3ccccc23)nc1` [Example 137, (5-Methoxy-pyridin-2-yl)-(2-methyl-quinazolin-4-yl)-amine] the figure was over 10000 nM; with `COc1ccc(N(C)c2nc(C)nc3ccccc23)nc1` [Example 138, (5-Methoxy-pyridin-2-yl)-(2-methyl-quinazolin-4-yl)-methyl-amine], 15 nM.
Turning to `COc1ccc(N(c2nc(C)nc3ccccc23)C(F)F)cc1` [Example 139, Difluoromethyl-(4-methoxy-phenyl)-(2-methyl-quinazolin-4-yl)-amine], the EC50 in the test with T-47D cells (setting [3]) came out at 4660 nM.
As for `COc1ccc(N(C)c2nc(C)nc3nccnc23)cc1` [Example 140, (4-Methoxy-phenyl)-(2-methyl-pteridin-4-yl)-methyl-amine], the EC50 in the test with T-47D cells (setting [3]) worked out at 27 nM.
Same read-out and setting: with `COc1cnc(Nc2nc(C)nc3ccccc23)nc1` [Example 141, (5-Methoxy-pyrimidin-2-yl)-(2-methyl-quinazolin-4-yl)-amine] the figure was over 10000 nM.
`COC(=O)COc1ccc(N(C)c2nc(C)nc3ccccc23)cc1` [Example 143, {4-[Methyl-(2-methyl-quinazolin-4-yl)-amino]phenoxy}-acetic acid methyl ester] came in with an IC50 in test [1] of 2200 nM. That is a single-digit micromolar value.
The same measure, in the same setting: as for `Cc1nc(N(C)c2ccc(OCC(=O)O)cc2)c2ccccc2n1` [Example 144, {4-[Methyl-(2-methyl-quinazolin-4-yl)-amino]phenoxy}-acetic acid], the figure is 1700 nM; as for `COc1ccc(N(C)c2nc(NCCN)nc3ccccc23)cc1` [Example 145, N^2-(2-Amino-ethyl)-N^4-(4-methoxy-phenyl)-N^4-methyl-quinazoline-2,4-diamine], 38 nM; as for `COc1ccc(N(C)c2nc(OC(C)C)nc3ccccc23)cc1` [Example 156, (2-Isopropoxy-quinazolin-4-yl)-(4-methoxy-phenyl)-methyl-amine], 6 nM.
Same read-out and setting: with `CNc1nc(N(C)c2ccc(OC)c(OC)c2)c2ccccc2n1` [Example 167, N^4-(3,4-Dimethoxy-phenyl)-N^2,N^4-dimethyl-quinazoline-2,4-diamine] the figure was 15 nM; with `COc1ccc(N(C)c2nc(N(C)C)nc3ccccc23)cc1OC` [Example 168, N^4-(3,4-Dimethoxy-phenyl)-N^2,N^2,N^4-trimethyl-quinazoline-2,4-diamine], 45 nM.
Take `CONc1nc(N(C)c2ccc(OC)cc2)c2ccccc2n1` [Example 172, N-{4-[(4-Methoxy-phenyl)-methyl-amino]-quinazolin-2-yl}-O-methyl-hydroxylamine]: the IC50 in test [1] was 2 nM. This IC50 is about 22-fold lower than that of the compound before.
Still for that read-out and setting: with `COc1ccc(N(C)c2nc(N(C)CCO)nc3ccccc23)cc1` [Example 174, 2-({4-[(4-Methoxy-phenyl)-methyl-amino]-quinazolin-2-yl}-methyl-amino)-ethanol] the figure was 22 nM; with `COc1ccc(N(C)c2nc(NCCN)nc3ccc(OC)cc23)cc1` [Example 175, N^2-(2-Amino-ethyl)-6-methoxy-N^4-(4-methoxy-phenyl)-N^4-methyl-quinazoline-2,4-diamine], 5000 nM.

Broadly, the EC50 is the concentration at which the effect is half-maximal. The IC50 is the concentration that gives 50% inhibition.
